These results are taken from patent US10758473B2, “Extract of plant origin of globularia and method for obtaining said extract by in vitro plant culture” (Sederma, priority 2011, dated 2020).

The target in experiment [1] is bovine serum albumin (BSA) (Bos taurus, UniProt P02769). Put plainly: Non-enzymatic glycation of BSA. It is filed as biochemical. The method, then: 1) Non-Enzymatic Glycation of BSA
This simple test reproduces in vitro a stress to which regular skin proteins are subjected: their functional alteration by a non-enzymatic glycation phenomenon.
The study model used is a bovine serum albumin (BSA), which is contacted with a physiological reducing sugar, the fructose, giving a spontaneous and slow reaction between the two molecules that can be accelerated by temperature. In this test, the BSA and fructose are incubated in the presence or absence of the test products at 50° C. for 7 days. The glycation end products have a natural fluorescence that can be quantified using a fluorimeter (λex=360 nm and λem=460 nm). 0.03% Aminoguanidine is used as a positive control of glycation inhibition.
The anti-glycation effect of the extract of Globularia cordifolia was studied using a protein model, BSA and a natural reducing sugar, fructose which glycates, i.e. binds, to the protein in a non-enzymatic manner. The product of this binding is fluorescent and is monitored with a recording system.

A short description of experiment [2]: Anti-singlet-oxygen test (Rose Bengal, visible light, uric acid destruction). It is filed as biochemical. Particulars: positive control, caffeic acid at 0002%. The source says:
Molecular oxygen (O2) plays a vital role as an acceptor of the respiratory chain terminal electrons. However, this metabolism and others, as well as external factors, such as UV radiations, lead to the occurrence of certain derivatives particularly reactive (singlet oxygen, hydroxyl radical, superoxide anion), which will cause oxidative damage to lipids, proteins and nucleic acids, even in healthy bodies. Singlet oxygen is one of these very energetic and highly reactive forms of oxygen. It is possible to produce experimentally in vitro singlet oxygen with dyes and UVA photons or visible light. The test presented thereafter uses the Rose Bengal, a dye and visible light. The purpose of this test is to evaluate the degradation of uric acid by singlet oxygen formed from the Rose Bengal, under the action of visible light. The visualization of the production of singlet oxygen is obtained by following the destruction of uric acid at 292 nm. In the presence of a compound capable of neutralizing singlet oxygen, this destruction will be slowed. The caffeic acid at 0002% is used as a positive control of an anti-singlet-oxygen activity Data in Table 3 below.

A short description of the next experiment: DPPH anti-radical test. Particulars: positive control, 0003% of caffeic acid. It is filed as biochemical. The source says: 2) DPPH Anti-Radical Test The DPPH (1, 1-diphenyl-2-picryl hydrazyl) is a stable free radical which is widely used for the detection of free radical scavengers. This molecule by losing its radical character is converted to DPPH2 (1, 1-diphenyl-2-picryl hydrazine). This conversion is accompanied by discoloration (purple→yellow) which can be monitored over time by spectrophotometry at 517 nm.
Background: Loss of DPPH colour is used to gauge radical scavenging.

The subject of another experiment is creatine kinase. Put plainly: Residual intracellular creatine kinase activity in human dermal fibroblasts after H2O2 stress. Particulars: Trolox at 500 μm. It is filed as cell-based. The source says:
Creatine kinase is a ubiquitous enzyme which exists in two isoforms in the skin. It is used to store energy in cells and enables tissues to respond to urgent energy requirements. This enzyme converts creatine into phosphocreatine using ATP which is converted back to ADP. When necessary, the enzyme works in the reverse direction and returns energy. Its activity falls with age as it is one of the preferred targets of reactive oxygen groups. Maintaining and increasing the activity of this enzyme is therefore desirable. Human dermal fibroblasts were placed in contact with the Globularia cordifolia extract according to the invention for 3 days. The cells were then exposed without said extract to an oxidative stress (hydrogen peroxide). After a further 3 days' contact with the Globularia cordifolia extract, the cells were again exposed to the same oxidative stress before being homogenized to measure residual intracellular creatine kinase activity. Activity was measured from the production of ATP from phosphocreatine and ADP. ATP is then measured from an enzymatic reaction leading to the formation of NADPH, readed at 340 nm. Results were standardized by measuring total protein (BCA).

The subject of experiment [3] is SOD (superoxide dismutase). Put plainly: Intracellular SOD activity in human keratinocytes treated with hydrogen peroxide. As to conditions: Trolox at 0.012%. It is filed as cell-based. The text has this: A preliminary test on the antioxidant skin potential had shown that human keratinocytes treated with the hydrogen peroxide, a model of oxidative stress, increased their intracellular activity of SOD (superoxide dismutase) by 22%*(p<0.01) compared to the negative control in the presence of the Globularia cordifolia extract.

For another experiment, the system named is sirtuin-1. Put plainly: Intracellular sirtuin-1 in human keratinocytes (ELISA). As to conditions: Trolox at 500 μm. It is filed as cell-based. The source says:
Hormetic effects such as calorie restriction or contact with hormetic molecules increase sirtuin enzymes and the lifespan of different organisms. The sirtuins act particularly on FOXO factor deacetylation and prevent triggering of the production of apoptotic proteins. The sirtuins also stimulate cellular anti-oxidant defenses and purification mechanisms (detoxification) and help to preserve mitochondrial function and therefore energy production. This increases survival and resistance to stresses. Human keratinocytes were cultured in the presence or absence of the Globularia cordifolia extract for 6 days and were then grinded and the intracellular levels of sirtuin-1 were measured using an ELISA method. Results were standardized by parallel measurement of total protein (BCA).
Background: In an ELISA, binding on a coated surface is turned into a signal by an enzyme label.

For a further experiment, the system named is Glutathion. Put plainly: Glutathion synthesis in keratinocytes. Type of experiment: cell-based. Particulars: Trolox at 0.012%.
In the next experiment the test system is intracellular peroxide. Put plainly: Endogenous peroxides in human keratinocytes (DCFH-DA probe). It is filed as cell-based. Particulars: Trolox at 500 μm. On the procedure:
This factor can be measured reliably using a probe called DCFH-DA, whose characteristic is to fluoresce in contact with peroxides once it entered the cell. Confluence human keratinocytes were placed in contact or not (negative control) for 24 h with the Globularia cordifolia extract until they grew to confluence. The cells were then exposed to and metabolized the DCFH label in a buffer. The label can then react with both intracellular peroxides. The medium was then replaced with one containing or not the Globularia cordifolia extract and the oxidizing agent model hydrogen peroxide (neither the medium nor the Globularia cordifolia extract reacts directly with H2O2). Fluorescence was read in order to estimate the level of the intracellular peroxide which had reacted with the label. The number of cells was quantified using a nuclear labeling method (Hoechst 33258).

The subject of the next experiment is proteasome. Put plainly: Residual proteasome activity in human dermal fibroblasts after H2O2 stress. It is filed as cell-based. Particulars: Trolox 500 μm. The text has this: Human dermal fibroblasts were placed or not (negative control) in contact with the Globularia cordifolia extract until they grew to confluence. The Globularia cordifolia extract was then removed and the cells were exposed to the oxidant model, hydrogen peroxide, to produce accelerated ageing. After this stage, the cells were again exposed to the Globularia cordifolia extract for 3 days and then were reseeded and subjected to a further oxidative stress to amplify the effect of the initial stress. The cells were then homogenized and the residual proteasome activity measured by monitoring cleavage of a model fluorescent peptide. Results were standardized by parallel measurement of protein.

The test system of experiment [4] is mitochondrial membrane potential. Put plainly: Mitochondrial membrane potential in fibroblasts after H2O2 stress. Type of experiment: cell-based, human. Particulars: Trolox at 500 μm. The method, then:
Human dermal fibroblasts were placed in contact with the Globularia cordifolia extract according to the invention for 3 days. The cells were then exposed without said extract to an oxidative stress (hydrogen peroxide). After a further 3 days' contact with the Globularia cordifolia extract, the cells were again exposed to the same oxidative stress before being homogenized to measure residual intracellular creatine kinase activity. Activity was measured from the production of ATP from phosphocreatine and ADP. ATP is then measured from an enzymatic reaction leading to the formation of NADPH, readed at 340 nm. Results were standardized by measuring total protein (BCA). A fall in this membrane potential is a warning sign of ageing and cell death and it is therefore essential that this be maintained to preserve the mitochondrial ability to produce ATP. Membrane potential was measured using a specific label sensitive to mitochondrial proton micro-variations. The label exists in two forms, monomeric and polymeric, which have different emission spectra. A high membrane potential promotes the polymeric form. An increase in the monomer/polymer ratio (520 nm/590 nm) produces therefore a fall in Δψ. A high ratio is therefore less conducive to cell survival than a lower ratio. The same fibroblast cultures than used for creatine kinase there above were used.

Molecules are shown by their SMILES.

bovine serum albumin (BSA), sequence (P02769 25-607): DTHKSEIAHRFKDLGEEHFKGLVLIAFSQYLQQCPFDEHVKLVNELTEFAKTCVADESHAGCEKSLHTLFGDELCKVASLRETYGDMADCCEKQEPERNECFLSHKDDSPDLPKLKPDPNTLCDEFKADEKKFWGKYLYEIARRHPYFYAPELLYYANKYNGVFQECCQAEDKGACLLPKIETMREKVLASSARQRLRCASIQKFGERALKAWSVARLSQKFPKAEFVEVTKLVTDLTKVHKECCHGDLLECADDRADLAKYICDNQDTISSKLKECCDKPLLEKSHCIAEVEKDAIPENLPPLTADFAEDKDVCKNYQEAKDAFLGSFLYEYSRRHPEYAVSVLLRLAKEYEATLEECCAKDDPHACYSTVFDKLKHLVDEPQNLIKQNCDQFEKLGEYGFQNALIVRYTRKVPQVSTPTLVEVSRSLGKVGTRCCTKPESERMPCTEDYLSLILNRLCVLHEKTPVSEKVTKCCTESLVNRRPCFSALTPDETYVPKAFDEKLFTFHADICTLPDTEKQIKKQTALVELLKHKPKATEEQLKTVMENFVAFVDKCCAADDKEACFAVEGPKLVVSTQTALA

As to `N=C(N)NN` [Aminoguanidine], in [1] (aminoguanidine at 0.03%), the “Glycation % Change, positive control” value is “Positive control aminoguanidine at 0.03%: −85%; p < 0.01”. This molecule also had a glycation inhibition versus the control in experiment [1] (positive control, 0.03% Aminoguanidine) of 85%.

In the case of `O=C(O)/C=C/c1ccc(O)c(O)c1` [caffeic acid], the “anti-singlet-oxygen activity versus the control” value in experiment [2] is “+73%”. In “DPPH anti-radical test”, the “anti-radical activity versus the control” value is −85%.

`Cc1c(C)c2c(c(C)c1O)CCC(C)(C(=O)O)O2` (centres unmarked) [Trolox]: the “Creatin kinase activity % Change, positive control” value with creatine kinase is on record as “Positive control Trolox at 500 μm: +28%; p < 0.05”. Further, the “SOD, positive control” value in [3] stood at 21%. For the same molecule, the “Sirtuin-1 % Change, positive control” value in the experiment with sirtuin-1 is given as “Positive control Trolox at 500 μm: +27%; p < 0.05”. Moreover, the “GSH, positive control” value with Glutathion was 53%. Further, the “Intracellular peroxide % Change, positive control” value with intracellular peroxide is listed as “Positive control Trolox at 500 μm: −91%; (p < 0.01)”. The “proteasome activity % Change, positive control” value in the experiment with proteasome is recorded as “Positive control Trolox 500 μm: +24%; (p < 0.05)”. In [4], the “Mitochondrial membrane potential % Change, positive control” value was “Positive control Trolox at 500 μm: +36%; p < 0.05”.
